Results on one compound are retold here after patent US10220069B2, “Compositions and methods for treating diabetes” (THE JOHNS HOPKINS UNIVERSITY, priority 2014, dated 2019).

The target in the assay is T1, Gcgr (Mus musculus, UniProt Q61606).
T1 construct: endogenous in cells; host or cells: live mice (WT, Gcgrfl/fl, HFD-fed C57Bl/6, Lepr db/db); hepatic receptor
Kind of assay: Gcgr antagonist GAI or inactive analog GAC 60 min before ipGTT in HFD and Lepr db/db mice. The format is in vivo. How it is done: Intraperitoneal glucose tolerance (ipGTT) and insulin tolerance (ipITT) tests were performed according to standard protocols (Song et al., 2013; Song et al., 2011). After 9 am-3 pm fasting, animals were administered 20% D-glucose (via ip injection), insulin 0.5 U/kg i.p. (Novolin), glucagon (100 μg/kg i.p. (Sigma)). […] The glucagon receptor antagonist GAI (N-(3-Cyano-6-(1,1-dimethylpropyl)-4,5,6,7-tetrahydro-1-benzothien-2-yl)-2-ethylbutanamide (Qureshi et al., 2004) and its non-active analogue were administered (50 mg/kg i.p. in DMSO) in HFD fed and Lepr^db/db mice 60 min before i. GTT. Intraperitoneal pyruvate converstion (1 g/kg i.p.) test (ipPCT) in ΔL-Prkar1a mice was performed in the fed state (9 am) to avoid any confounding effects of fasting-induced elevated endogenous glucagon levels. Tail-vein blood was collected at the indicated times in figures for glucose and insulin measurements. Serum insulin was measured using mouse magnetic bead panel (Millipore, Luminex). Plasma for glucagon measurements was drawn from mice in the fed state at 9 am, unless otherwise noted for fasting studies. Plasma glucagon (Alpco) and kisspeptin1 (USCN Life Sciences Inc. E92559Ra) were measured by ELISA according to manufacturer's instructions including dilution of samples.
Liver Kiss1 Upregulation is Linked to Hyperglucagonemia in DM.

SMILES strings stand for the structures.

T1 sequence (Q61606 27-485): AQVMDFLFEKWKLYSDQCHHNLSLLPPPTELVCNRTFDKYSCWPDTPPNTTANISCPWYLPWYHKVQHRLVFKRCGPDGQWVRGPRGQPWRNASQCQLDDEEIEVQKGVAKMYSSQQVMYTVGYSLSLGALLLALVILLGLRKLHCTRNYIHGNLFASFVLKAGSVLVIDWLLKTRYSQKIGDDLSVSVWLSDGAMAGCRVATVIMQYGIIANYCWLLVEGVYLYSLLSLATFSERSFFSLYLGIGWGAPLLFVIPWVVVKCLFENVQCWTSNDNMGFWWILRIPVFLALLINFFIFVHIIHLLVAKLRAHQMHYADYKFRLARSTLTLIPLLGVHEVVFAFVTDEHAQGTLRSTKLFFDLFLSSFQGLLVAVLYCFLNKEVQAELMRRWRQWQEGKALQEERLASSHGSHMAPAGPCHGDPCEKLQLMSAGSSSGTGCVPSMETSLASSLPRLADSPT

With `CCC(CC)C(=O)Nc1sc2c(c1C#N)CCC(C(C)(C)CC)C2` (stereo not drawn) [GAI, N-(3-Cyano-6-(1,1-dimethylpropyl)-4,5,6,7-tetrahydro-1-benzothien-2-yl)-2-ethylbutanamide], where the note is “HFD and Lepr db/db mice”, the “liver Kiss1 expression” value is “reduction”; the “liver gluconeogenic gene expression (Pparg1a, Src1, G6P, Pck1 mRNA)” value was “reduction”; the “liver pCREB” value is listed as “corresponding reductions”. Further, the “CREB occupancy of CRE 1 and 2 in the Kiss1 promoter” value (HFD and Lepr db/db mice, in vivo ChIP) is “reduces CREB occupancy”. For the same compound, under “HFD and Lepr db/db mice, single dose 50 mg/kg i.p. 60 min before ipGTT, versus GAC”, the “basal glycemia and GT” value is “improved basal glycemia as well as GT”. In addition, the “circulating plasma glucagon levels” value (HFD fed and Lepr db/db mice, fed state, 60 min after treatment) is on record as “remained unchanged”.
